US20140051575A1 (priority 2011, published 2014)

What was measured:
[1] = Measurement of logP values by HPLC on reversed phase columns (EEC directive 79/831 Annex V.A8); assay type: physicochemical; details: pH 2.7, 0.1% formic acid in water / acetonitrile gradient, calibration with alkan-2-ones
Procedure: Measurement of logP values was performed according EEC directive 79/831 Annex V.A8 by HPLC (High Performance Liquid Chromatography) on reversed phase columns with the following methods:
Measurement of LC-MS was done at pH 2.7 with 0.1% formic acid in water and with acetonitrile (contains 0.1% formic acid) as eluent with a linear gradient from 10% acetonitrile to 95% acetonitrile.
Calibration was done with not branched alkan2-ones (with 3 to 16 carbon atoms) with known logP-values (measurement of logP values using retention times with linear interpolation between successive alkanones). lambda-maX-values were determined using UV-spectra from 200 nm to 400 nm and the peak values of the chromatographic signals.

[2] = tested on: Phytophthora infestans; assay type: in vivo; details: tomato plants, preventive spray, 500 ppm of active ingredient, evaluated 7 days after inoculation; 0% = untreated control, 100% = no disease

Cc1nnnn1C(=NOCc1cccc(NC(=O)COCC2CCCCC2)n1)c1ccccc1 [Example 27]
Log P [1]: 4.76
Eff. % [2]: 95%

Cn1nnnc1C(=NOCc1csc(NC(=O)COCCC2CCCCC2)n1)c1ccccc1 [Example 20]
Log P [1]: 4.63
Eff. % [2]: 100%

Cc1nnnn1C(=NOCc1cccc(NC(=O)C(C)OCc2ccccc2)n1)c1ccccc1 (stereo not shown) [Example 51]
Log P [1]: 4.11
Eff. % [2]: 95%

Cn1nnnc1C(=NOCc1cccc(NC(=O)OCC(C)(C)OCc2ccccc2)n1)c1ccccc1 [Example 68]
Log P [1]: 4.34
Eff. % [2]: 100%

C=CCSCC(=O)Nc1nc(CON=C(c2ccccc2)n2nnnc2C)cs1 [Example 83]
Log P [1]: 3.15
Eff. % [2]: 88%

Cn1nnnc1C(=NOCc1csc(NC(=O)C2CC2c2ncc(C(F)(F)F)cc2Cl)n1)c1ccccc1 (stereo not shown) [Example 93]
Log P [1]: 4.37
Eff. % [2]: 98%

Cc1nnnn1C(=NOCc1csc(NC(=O)CCSCc2ccccc2)n1)c1ccccc1 [Example 116]
Log P [1]: 3.73
Eff. % [2]: 80%

CC(OCC1CCCCO1)C(=O)Nc1nc(CON=C(c2ccccc2)c2nnnn2C)cs1 (stereo not shown) [Example 59]
Log P [1]: 3.62
Eff. % [2]: 100%

Cn1nnnc1C(=NOCc1cccc(NC(=O)COCC2CCCCO2)n1)c1ccccc1 (stereo not shown) [Example 53]
Log P [1]: 3.33

Cc1nnnn1C(=NOCc1cccc(NC(=O)C(C)OCC2CCC2)n1)c1ccccc1 (stereo not shown) [Example 32]
Log P [1]: 4.26
Eff. % [2]: 100%

Cc1nnnn1C(=NOCc1csc(NC(=O)CSC2CCCC2)n1)c1ccccc1 [Example 90]
Log P [1]: 3.65
Eff. % [2]: 95%

Cc1nnnn1C(=NOCc1csc(NC(=O)COCCC(C)C)n1)c1ccccc1 [Example 46]
Log P [1]: 3.87
Eff. % [2]: 100%

CC(C)CCOCC(=O)Nc1cccc(CON=C(c2ccccc2)c2nnnn2C)n1 [Example 43]
Log P [1]: 4.09

CC(OCC(=O)Nc1cccc(CON=C(c2ccccc2)c2nnnn2C)n1)c1ccccc1 (stereo not shown) [Example 95]
Log P [1]: 3.94
Eff. % [2]: 100%

Cn1nnnc1C(=NOCc1cccc(NC(=O)COCC2CCCC2)n1)c1ccccc1 [Example 5]
Log P [1]: 4.24
Eff. % [2]: 97%

Cc1nnnn1C(=NOCc1csc(NC(=O)CSC2CCCCC2)n1)c1ccccc1 [Example 89]
Log P [1]: 3.96
Eff. % [2]: 100%

Cn1nnnc1C(=NOCc1csc(NC(=O)COCC2CCCCO2)n1)c1ccccc1 (stereo not shown) [Example 57]
Log P [1]: 3.25
Eff. % [2]: 95%

Cn1nnnc1C(=NOCc1cccc(NC(=O)C2CC2c2ncc(C(F)(F)F)cc2Cl)n1)c1ccccc1 (stereo not shown) [Example 92]
Log P [1]: 4.54
Eff. % [2]: 98%

CC(OCC1CCCCC1)C(=O)Nc1nc(CON=C(c2ccccc2)c2nnnn2C)cs1 (stereo not shown) [Example 18]
Log P [1]: 4.64
Eff. % [2]: 100%

CC(OCC1CCCCO1)C(=O)Nc1cccc(CON=C(c2ccccc2)c2nnnn2C)n1 (stereo not shown) [Example 55]
Log P [1]: 3.67
Eff. % [2]: 100%

Cn1nnnc1C(=NOCc1cccc(NC(=O)C(C)(C)CSC2CCCCC2)n1)c1ccccc1 [Example 94]
Log P [1]: 4.98
Eff. % [2]: 100%

CC(SC1CCCC1)C(=O)Nc1nc(CON=C(c2ccccc2)c2nnnn2C)cs1 (stereo not shown) [Example 73]
Log P [1]: 3.99
Eff. % [2]: 95%

CC(COCc1ccccc1)C(=O)Nc1cccc(CON=C(c2ccccc2)c2nnnn2C)n1 (stereo not shown) [Example 97]
Log P [1]: 3.85
Eff. % [2]: 100%

Cn1nnnc1C(=NOCc1cccc(NC(=O)COCC2CC2)n1)c1ccccc1 [Example 1]
Log P [1]: 3.29

CC(OCc1ccccc1)C(=O)Nc1cccc(CON=C(c2ccccc2)c2nnnn2C)n1 (stereo not shown) [Example 47]
Log P [1]: 3.92

C=CCSC(C)C(=O)Nc1cccc(CON=C(c2ccccc2)c2nnnn2C)n1 (stereo not shown) [Example 66]
Eff. % [2]: 95%

Cn1nnnc1C(=NOCc1cccc(NC(=O)CSCc2ccccc2)n1)c1ccccc1 [Example 64]
Log P [1]: 3.78

Cc1nnnn1C(=NOCc1cccc(NC(=O)COCC2CCCO2)n1)c1ccccc1 (stereo not shown) [Example 61]
Log P [1]: 2.98
